# Source: EP1969935A1, “3.4-disubstituted phenoxy phenylamidines and their use as fungicides” (Bayer CropScience AG, priority 2007, dated 2008)
# How the values were obtained:
# logP determination = assay type: physicochemical; settings: pH 2.3; given in the preparation examples; read-out: log P (pH2.3)
# Podosphaera leucotricha = assay: Podosphaera test (apple) / protective; assay type: in vivo; settings: 100ppm active ingredient, apple plants sprayed protectively, evaluated 10 days after inoculation; 0% = control, 100% = no infestation
# Description: Beispiel 1: Podosphaera-Test (Apfel) / protektiv
# (§1) Zur Herstellung einer zweckmäßigen Wirkstoffzubereitung vermischt man 1 Gewichtsteil Wirkstoff mit den angegebenen Mengen Lösungsmittel und Emulgator und verdünnt das Konzentrat mit Wasser auf die gewünschte Konzentration.
# (§2) Zur Prüfung auf protektive Wirksamkeit werden junge Pflanzen mit der Wirkstoffzubereitung in der angegebenen Aufwandmenge besprüht. Nach Antrocknen des Spritzbelages werden die Pflanzen mit einer wäßrigen Sporensuspension des Apfelmehltauerregers Podosphaera leucotricha inokuliert. Die Pflanzen werden dann im Gewächshaus bei ca. 23°C und einer relativen Luftfeuchtigkeit von ca. 70% aufgestellt.
# (§3) 10 Tage nach der Inokulation erfolgt die Auswertung. Dabei bedeutet 0% ein Wirkungsgrad, der demjenigen der Kontrolle entspricht, während ein Wirkungsgrad von 100% bedeutet, daß kein Befall beobachtet wird.
# Sphaerotheca fuliginea = assay: Sphaerotheca test (cucumber) / protective; assay type: in vivo; settings: 100ppm active ingredient, cucumber plants sprayed protectively, evaluated 7 days after inoculation; 0% = control, 100% = no infestation
# Description: Beispiel 2: Sphaerotheca-Test (Gurke) / protektiv
# as §1
# as §2, with “von Sphaerotheca fuliginea” for “des Apfelmehltauerregers Podosphaera leucotricha”, “dann” for “dann im Gewächshaus”, “70% im Gewächshaus” for “70%”
# 7 Tage nach der Inokulation erfolgt die Auswertung. Dabei bedeutet 0% ein Wirkungsgrad, der demjenigen der Kontrolle entspricht, während ein Wirkungsgrad von 100% bedeutet, daß kein Befall beobachtet wird.
# Uromyces appendiculatus = assay: Uromyces test (bean) / protective; assay type: in vivo; settings: 10ppm active ingredient, bean plants sprayed protectively, evaluated 10 days after inoculation; 0% = control, 100% = no infestation
# Description: In diesem Test zeigen die erfindungsgemäßen Verbindungen 10, 11, 12 und 13 (siehe Tab.IV) bei einer Konzentration an Wirkstoff von 100ppm einen Wirkungsgrad von 70% oder mehr. Beispiel 3: Uromyces - Test (Bohne) / protektiv
# as §1
# Zur Prüfung auf protektive Wirksamkeit werden junge Pflanzen mit der Wirkstoffzubereitung in der angegebenen Aufwandmenge besprüht. Nach Antrocknen des Spritzbelages werden die Pflanzen mit einer wäßrigen Sporensuspension des Bohnenrosterregers Uromyces appendiculatus inokuliert und verbleiben dann 1 Tag bei ca. 20°C und 100% relativer Luftfeuchtigkeit in einer Inkubations-kabine.
# Die Pflanzen werden dann im Gewächshaus bei ca. 21°C und einer relativen Luftfeuchtigkeit von ca. 90% aufgestellt.
# as §3
# [1] = system: Erysiphe graminis f.sp. hordei; assay: Erysiphe test (barley) / protective; assay type: in vivo; settings: 1000 ppm active ingredient, barley plants sprayed protectively, evaluated 7 days after inoculation; 0% = control, 100% = no infestation
# Description: Beispiel 4: Erysiphe-Test (Gerste) / protektiv
# as §1
# Zur Prüfung auf protektive Wirksamkeit besprüht man junge Pflanzen mit der Wirkstoffzubereitung in der angegebenen Aufwandmenge.
# Nach Antrocknen des Spritzbelages werden die Pflanzen mit Sporen von Erysiphe graminis f.sp. hordei bestäubt.
# Die Pflanzen werden in einem Gewächshaus bei einer Temperatur von ca. 20°C und einer relativen Luftfeuchtigkeit von ca. 80 % aufgestellt, um die Entwicklung von Mehltaupusteln zu begünstigen.
# 7 Tage nach der Inokulation erfolgt die Auswertung. Dabei bedeutet 0 % ein Wirkungsgrad, der demjenigen der Kontrolle entspricht, während ein Wirkungsgrad von 100 % bedeutet, daß kein Befall beobachtet wird.
# Alternaria solani = assay: Alternaria test (tomato) / protective; assay type: in vivo; settings: 500ppm active ingredient, tomato plants sprayed protectively, inoculated 1 day after treatment, evaluated 7 days after inoculation; 0% = control, 100% = no infestation
# Description: Beispiel 5: Alternaria-Test (Tomate) / protektiv
# as §1
# Zur Prüfung auf protektive Wirksamkeit bespritzt man junge Tomatenpflanzen mit der Wirkstoffzubereitung in der angegebenen Aufwandmenge. 1 Tag nach der Behandlung werden die Pflanzen mit einer Sporensuspension von Alternaria solani inokuliert und stehen dann 24h bei 100% rel. Feuchte und 20°C. Anschließend stehen die Pflanzen bei 96% rel. Luftfeuchtigkeit und einer Temperatur von 20 °C.
# 7 Tage nach der Inokulation erfolgt die Auswertung. Dabei bedeutet 0 % ein Wirkungsgrad, der demjenigen der Kontrolle entspricht, während ein Wirkungsgrad von 100 % bedeutet, dass kein Befall beobachtet wird.
logD (logP determination),SMILES,Wirkungsgrad (Podosphaera leucotricha) [%],Wirkungsgrad (Sphaerotheca fuliginea) [%],Wirkungsgrad (Uromyces appendiculatus) [%],Wirkungsgrad [1] [%],Wirkungsgrad (Alternaria solani) [%]
3.08,"Cc1cc(Oc2ccc3c(c2)CCCC3)c(C)cc1N [4-(5,6,7,8-Tetrahydro-2-napthoxy)-2,5-dimethylanilin]",–,–,–,–,–
5.86,"Cc1cc([N+](=O)[O-])c(C)cc1Oc1ccc2c(c1)CCCC2 [4-(5,6,7,8-Tetrahydro-2-napthoxy)-2,5-dimethylnitrobenzol]",–,–,–,–,–
–,"CCN(C)C=Nc1cc(C)c(Oc2ccc3c(c2)CCCC3)cc1C [Verbindung 13, N-E-thyl-N-methyl-N'-[4-(5,6,7,8-tetrahydro-2-napthoxy)-2,5-dimethylphenyl]form-amidin]",≥ 70,≥ 70,≥ 70,≥ 70,≥ 70
